From article PMC8710297, “Identification of potent SENP1 inhibitors that inactivate SENP1/JAK2/STAT signaling pathway and overcome platinum drug resistance in ovarian cancer” (Clinical and Translational Medicine, 2021)

Experiments:
IGROV1 CR xenograft = IGROV1 CR xenograft tumor growth; format: in vivo; conditions: nude mice, i.p., cisplatin 8 mg/kg/2 days + UA 10 mg/kg/2 days or UAMMC9 2 mg/kg/2 days, compared to single agents
Method: Importantly, the treatments had minor toxicity (Figures S3B–D).
(§1) Cell viability was measured by SRB assay. […] Data were represented as mean ± SD (n = 3). (B) Colony formation assay in cells treated as indicated. […] (D) Growth curves of xenograft tumors are shown in (C). Data are represented as means ± SEM, n = 6 mice/group. **p < 0.01. […] (F) IGROV1 CR xenograft tumor growth curve by indicated treatments. Data are represented as means ± SD, n = 6 tumors/group. **p < 0.01. (G) Immunohistochemistry (IHC) staining against pSTAT3 antibodies of tumor samples from four groups of mice (magnification, 200x) (Upper). […]
ac etoni tri le (solvent A) and 0.02% phosphoric ac id in 10% acetonitrile in wate r (solvent B) at a constant solvent flow rate of 1.0 mL/min.
9. Molecular docking and dynamics simulation
Docking and scoring were performed by using Schrödinger software pa c ka ge. Lig Prep wa s incorp orated to refin e UA (ligand). Ionization state s within pH=7.0±2.0 were selected fo r docking. SENP1 crystal structu re was downloaded from protein datab ank (PDB ID: 2IY0, http :// ww w.rcsb.org /). […] The protein wa s added hyd ro g e n atom s and charges, removed wate rs by Protein Preparation Wi zard module. […] The extended sampling method wa s selected fo r confor mationa l search, and the resi du es in the ra n ge of ligand 5 Å we re further optimized. […]
6 tumors per group were assessed. […]

IGROV1 CR cells = experiment: Synergy with cisplatin, SRB cell viability, combination index; format: cell-based
Method: as §1
represented as mean ± SD (n = 3) . ( B) Body we i ght changes of mice in each grou p treated […]
[…] Data are rep res e nted as mea ns ± SD, n= 6 tu mors /g roup . (C) H&E staining of paraffin‐embedded 3‐μm‐th ick tissue sec tions of the tumor, heart, lung , liver and kidney from 4 groups of mice (m agn i f ication , ×200) treated in B.
Cisplatin: sl ightl y […]
means ± SD, n=6 tumors/group . […]
1. Antibodies and re a ge nt s […]
[…] Momordin Ic ( A14773; Adooq Biosc ience) was dissolved in DMSO. Ursolic acid (A10961; Adooq Bioscience) wa s dissolved in DMSO. […]
Cell viability was detected using Sulforhodamine B (SRB) assay as described previously (3).
Absorbance at 51 0 nm was detected using a SpectraMax Re a d e r (Molecular Devices) and an alyzed with SoftMax Analys is Software (Molecular Devices). […]

| SMILES | reduction of tumor growth in combination with cisplatin (IGROV1 CR xenograft) | synergy with cisplatin to inhibit IGROV1 CR cells (IGROV1 CR cells) |
| --- | --- | --- |
| C[C@H]1[C@H](C)CC[C@]2(C(=O)O)CC[C@]3(C)C(=CC[C@@H]4[C@@]5(C)CC[C@H](O)C(C)(C)[C@@H]5CC[C@]43C)[C@H]12 [UA, ursolic acid, reference compound] | remarkable synergy | great synergy |
| C[C@H]1[C@H](C)CC[C@]2(C(=O)NCC(=O)N(C)CCO)CC[C@]3(C)C(=CC[C@@H]4[C@@]5(C)CC[C@H](O)C(C)(C)[C@@H]5CC[C@]43C)[C@H]12 [UAMMC9] | remarkable synergy | great synergy |
